# Laboratory results published in ChEMBL document CHEMBL1129105, “Synthesis and biological evaluation of N-(1-aziridino)-6-fluoro-quinolone-3-carboxylic acids” (1996).
# Columns and labels:
# Proteus inconstans = assay: In vitro antibacterial activity of compound was measured against gram negative Proteus inconstans NCTC 8055; format: functional; settings: Providencia alcalifaciens
# Streptococcus pneumoniae = assay: In vitro antibacterial activity of compound was measured against gram positive Streptococcus pneumoniae; format: functional
# Clostridium perfringens = assay: In vitro antibacterial activity of compound was measured against gram positive Clostridium perfringens 70500; format: functional
# [1] = system: Acinetobacter calcoaceticus subsp. anitratus; assay: In vitro antibacterial activity of compound was measured against gram negative Acinetobacter anitratus 150001; format: functional
# [2] = system: Bordetella bronchiseptica; assay: In vitro antibacterial activity of compound was measured against gram negative Bordetella bronchiseptica ATCC 4617; format: functional
# Shigella sonnei = assay: In vitro antibacterial activity of compound was measured against gram negative Shigella sonnei; format: functional
# Bacillus subtilis = assay: In vitro antibacterial activity of compound was measured against gram positive Bacillus subtilis ATCC 6633; format: functional
# Pseudomonas aeruginosa = assay: In vitro antibacterial activity of compound was measured against gram negative Pseudomonas pyocyanea NCTC 10490; format: functional, pseudomona pyocyanea
# Alcaligenes faecalis = assay: In vitro antibacterial activity of compound was measured against gram negative Alcaligenes faecalis 140001; format: functional
# Streptococcus pyogenes [3] = assay: In vitro antibacterial activity of compound was measured against gram positive Streptococcus pyogenes A 118; format: functional
# Enterococcus faecalis = assay: In vitro antibacterial activity of compound was measured against gram positive Streptococcus faecalis; format: functional
# Streptococcus pyogenes [4] = assay: In vitro antibacterial activity of compound was measured against gram positive Streptococcus pyogenes A 115 ROBB; format: functional
# Escherichia coli [5] = assay: In vitro antibacterial activity of compound was measured against gram negative Escherichia coli 6R; format: functional
# Bacteroides fragilis = assay: In vitro antibacterial activity of compound was measured against gram negative Bacteroides fragilis ATCC 25285; format: functional
# Staphylococcus aureus [6] = assay: In vitro antibacterial activity of compound was measured against gram positive Staphylococcus aureus SMITH; format: functional
# Escherichia coli [7] = assay: In vitro antibacterial activity of compound was measured against gram negative Escherichia coli K12; format: functional
# Proteus vulgaris = assay: In vitro antibacterial activity of compound was measured against gram negative Proteus vulgaris XL; format: functional
# [8] = system: Mycobacterium tuberculosis; assay: In vitro antibacterial activity of compound was measured against gram positive Mycobacterium tuberculosis Ravenel(bovin); format: functional
# Salmonella typhimurium = assay: In vitro antibacterial activity of compound was measured against gram negative Salmonella Typhimurium 51; format: functional, Salmonella enterica subsp. enterica serovar Typhimurium; settings: Salmonella enterica
# Serratia marcescens = assay: In vitro antibacterial activity of compound was measured against gram negative Serratia marcescens; format: functional
# Staphylococcus aureus [9] = assay: In vitro antibacterial activity of compound was measured against gram positive Staphylococcus aureus 1110 pen.rez.; format: functional
# [10] = system: Mycobacterium tuberculosis; assay: In vitro antibacterial activity of compound was measured against gram positive Mycobacterium tuberculosis H37Rv (human); format: functional
# Klebsiella pneumoniae = assay: In vitro antibacterial activity of compound was measured against gram negative Klebsiella pneumoniae ATCC 10031; format: functional
Structure (SMILES),MIC (Proteus inconstans),MIC (Streptococcus pneumoniae),MIC (Clostridium perfringens),MIC [1],MIC [2],MIC (Shigella sonnei),MIC (Bacillus subtilis),MIC (Alcaligenes faecalis),MIC (Streptococcus pyogenes [3]),MIC (Enterococcus faecalis),MIC (Streptococcus pyogenes [4]),MIC (Bacteroides fragilis),MIC (Staphylococcus aureus [6]),MIC (Proteus vulgaris),MIC [8],MIC (Salmonella typhimurium),MIC (Serratia marcescens),MIC (Staphylococcus aureus [9]),MIC [10],MIC (Klebsiella pneumoniae),other results
CN1CCN(c2cc3c(cc2F)c(=O)c(C(=O)O)cn3N2C3CCCCC32)CC1 (stereo unspecified),100 µg/mL,100 µg/mL,100 µg/mL,12.5 µg/mL,25 µg/mL,12.5 µg/mL,3.1 µg/mL,100 µg/mL,100 µg/mL,> 100 µg/mL,100 µg/mL,25 µg/mL,50 µg/mL,50 µg/mL,3.1 µg/mL,25 µg/mL,50 µg/mL,50 µg/mL,6.2 µg/mL,0.8 µg/mL,MIC (Pseudomonas aeruginosa): 100 µg/mL; MIC (Escherichia coli [5]): 100 µg/mL; MIC (Escherichia coli [7]): 50 µg/mL
CN1CCN(c2cc3c(cc2F)c(=O)c(C(=O)O)cn3N2CC2c2cccc(C(F)(F)F)c2)CC1 (stereo unspecified),100 µg/mL,12.5 µg/mL,12.5 µg/mL,100 µg/mL,50 µg/mL,25 µg/mL,10 µg/mL,100 µg/mL,25 µg/mL,25 µg/mL,50 µg/mL,50 µg/mL,25 µg/mL,100 µg/mL,100 µg/mL,100 µg/mL,100 µg/mL,25 µg/mL,12.5 µg/mL,12.5 µg/mL,MIC (Pseudomonas aeruginosa): 100 µg/mL; MIC (Escherichia coli [5]): 100 µg/mL; MIC (Escherichia coli [7]): 100 µg/mL
CN1CCN(c2c(F)cc3c(=O)c(C(=O)O)cn(N4CC4c4ccccc4)c3c2F)CC1 (stereo unspecified),50 µg/mL,25 µg/mL,100 µg/mL,> 100 µg/mL,100 µg/mL,6.2 µg/mL,100 µg/mL,> 100 µg/mL,> 100 µg/mL,> 100 µg/mL,50 µg/mL,> 100 µg/mL,100 µg/mL,25 µg/mL,50 µg/mL,25 µg/mL,50 µg/mL,100 µg/mL,100 µg/mL,12.5 µg/mL,MIC (Pseudomonas aeruginosa): > 100 µg/mL; MIC (Escherichia coli [5]): > 100 µg/mL; MIC (Escherichia coli [7]): 25 µg/mL
CN1CCN(c2cc3c(cc2F)c(=O)c(C(=O)O)cn3N2CC2c2ccccn2)CC1 (stereo unspecified),> 100 µg/mL,25 µg/mL,50 µg/mL,> 100 µg/mL,100 µg/mL,12.5 µg/mL,50 µg/mL,> 100 µg/mL,50 µg/mL,100 µg/mL,50 µg/mL,50 µg/mL,50 µg/mL,> 100 µg/mL,25 µg/mL,100 µg/mL,100 µg/mL,100 µg/mL,50 µg/mL,50 µg/mL,MIC (Pseudomonas aeruginosa): 100 µg/mL; MIC (Escherichia coli [5]): 100 µg/mL; MIC (Escherichia coli [7]): 100 µg/mL
CN1CCN(c2cc3c(cc2F)c(=O)c(C(=O)O)cn3N2CC2c2ccc(F)cc2)CC1 (stereo unspecified),100 µg/mL,5 µg/mL,6.2 µg/mL,50 µg/mL,12.5 µg/mL,25 µg/mL,10 µg/mL,100 µg/mL,25 µg/mL,25 µg/mL,10 µg/mL,25 µg/mL,25 µg/mL,100 µg/mL,6.2 µg/mL,50 µg/mL,100 µg/mL,25 µg/mL,12.5 µg/mL,6.2 µg/mL,MIC (Pseudomonas aeruginosa): 100 µg/mL; MIC (Escherichia coli [5]): 100 µg/mL; MIC (Escherichia coli [7]): 50 µg/mL
CN1CCN(c2c(F)cc3c(=O)c(C(=O)O)cn(N4CC4c4cccc(C(F)(F)F)c4)c3c2F)CC1 (stereo unspecified),100 µg/mL,25 µg/mL,100 µg/mL,100 µg/mL,100 µg/mL,12.5 µg/mL,50 µg/mL,100 µg/mL,100 µg/mL,50 µg/mL,100 µg/mL,50 µg/mL,25 µg/mL,100 µg/mL,50 µg/mL,50 µg/mL,100 µg/mL,50 µg/mL,100 µg/mL,12.5 µg/mL,MIC (Pseudomonas aeruginosa): 100 µg/mL; MIC (Escherichia coli [5]): 100 µg/mL; MIC (Escherichia coli [7]): 50 µg/mL
CN1CCN(c2c(F)cc3c(=O)c(C(=O)O)cn(N4CC4c4ccc(F)cc4)c3c2F)CC1 (stereo unspecified),25 µg/mL,50 µg/mL,100 µg/mL,> 100 µg/mL,> 100 µg/mL,12.5 µg/mL,> 100 µg/mL,> 100 µg/mL,> 100 µg/mL,> 100 µg/mL,100 µg/mL,> 100 µg/mL,> 100 µg/mL,25 µg/mL,50 µg/mL,25 µg/mL,25 µg/mL,> 100 µg/mL,100 µg/mL,12.5 µg/mL,MIC (Pseudomonas aeruginosa): > 100 µg/mL; MIC (Escherichia coli [5]): > 100 µg/mL; MIC (Escherichia coli [7]): 12.5 µg/mL
O=C(O)c1cn(C2CC2)c2cc(N3CCNCC3)c(F)cc2c1=O [CIPROFLOXACIN],0.03 µg/mL,1 µg/mL,,0.25 µg/mL,0.25 µg/mL,0.015 µg/mL,0.03 µg/mL,1 µg/mL,1 µg/mL,1 µg/mL,1 µg/mL,6.2 µg/mL,0.12 µg/mL,0.008 µg/mL,0.05 µg/mL,0.015 µg/mL,0.03 µg/mL,0.25 µg/mL,0.2 µg/mL,0.008 µg/mL,
CN1CCN(c2cc3c(cc2F)c(=O)c(C(=O)O)cn3N2CC2c2ccccc2)CC1 (stereo unspecified),100 µg/mL,5 µg/mL,6.2 µg/mL,50 µg/mL,6.2 µg/mL,6.2 µg/mL,6.2 µg/mL,100 µg/mL,10 µg/mL,25 µg/mL,10 µg/mL,6.2 µg/mL,12.5 µg/mL,50 µg/mL,3.1 µg/mL,50 µg/mL,100 µg/mL,25 µg/mL,6.2 µg/mL,3.1 µg/mL,MIC (Pseudomonas aeruginosa): 100 µg/mL; MIC (Escherichia coli [5]): 100 µg/mL; MIC (Escherichia coli [7]): 50 µg/mL
CN1CCN(c2c(F)cc3c(=O)c(C(=O)O)cn(N4CC4c4ccccn4)c3c2F)CC1 (stereo unspecified),50 µg/mL,100 µg/mL,100 µg/mL,> 100 µg/mL,> 100 µg/mL,6.2 µg/mL,> 100 µg/mL,> 100 µg/mL,> 100 µg/mL,> 100 µg/mL,> 100 µg/mL,> 100 µg/mL,> 100 µg/mL,25 µg/mL,50 µg/mL,25 µg/mL,25 µg/mL,> 100 µg/mL,100 µg/mL,12.5 µg/mL,MIC (Pseudomonas aeruginosa): > 100 µg/mL; MIC (Escherichia coli [5]): > 100 µg/mL; MIC (Escherichia coli [7]): 50 µg/mL
